Source: ChEMBL document CHEMBL5649169 (ChemMedChem, 2018)

Columns and labels:
[1] = target: Proteasome subunit alpha type-1 (Homo sapiens) (UniProt P25786); also: assay method not described here
[2] = target: Exportin-T (Homo sapiens) (UniProt O43592); also: assay method not described here
[3] = target: Protein RER1 (Homo sapiens) (UniProt O15258); also: assay method not described here
[4] = target: Nuclear cap-binding protein subunit 1 (Homo sapiens) (UniProt Q09161); also: assay method not described here
[5] = target: Succinate dehydrogenase [ubiquinone] iron-sulfur subunit, mitochondrial (Homo sapiens) (UniProt P21912); also: assay method not described here
[6] = target: Ephrin type-A receptor 5 (Homo sapiens, UniProt P54756); experiment: Inhibition of Nano Luc-fused full length C-terminal EPHA5 (unknown origin) expressed in HEK293T cells using NanoGlo as substrate incubated for 2 hrs in presence of tracer by NanoBRET assay; assay type: cell-based
[7] = target: Protein transport protein Sec23B (Homo sapiens) (UniProt Q15437); also: assay method not described here
Chain of Protein transport protein Sec23B (Homo sapiens) (Q15437 whole entry, the tested form may be a part): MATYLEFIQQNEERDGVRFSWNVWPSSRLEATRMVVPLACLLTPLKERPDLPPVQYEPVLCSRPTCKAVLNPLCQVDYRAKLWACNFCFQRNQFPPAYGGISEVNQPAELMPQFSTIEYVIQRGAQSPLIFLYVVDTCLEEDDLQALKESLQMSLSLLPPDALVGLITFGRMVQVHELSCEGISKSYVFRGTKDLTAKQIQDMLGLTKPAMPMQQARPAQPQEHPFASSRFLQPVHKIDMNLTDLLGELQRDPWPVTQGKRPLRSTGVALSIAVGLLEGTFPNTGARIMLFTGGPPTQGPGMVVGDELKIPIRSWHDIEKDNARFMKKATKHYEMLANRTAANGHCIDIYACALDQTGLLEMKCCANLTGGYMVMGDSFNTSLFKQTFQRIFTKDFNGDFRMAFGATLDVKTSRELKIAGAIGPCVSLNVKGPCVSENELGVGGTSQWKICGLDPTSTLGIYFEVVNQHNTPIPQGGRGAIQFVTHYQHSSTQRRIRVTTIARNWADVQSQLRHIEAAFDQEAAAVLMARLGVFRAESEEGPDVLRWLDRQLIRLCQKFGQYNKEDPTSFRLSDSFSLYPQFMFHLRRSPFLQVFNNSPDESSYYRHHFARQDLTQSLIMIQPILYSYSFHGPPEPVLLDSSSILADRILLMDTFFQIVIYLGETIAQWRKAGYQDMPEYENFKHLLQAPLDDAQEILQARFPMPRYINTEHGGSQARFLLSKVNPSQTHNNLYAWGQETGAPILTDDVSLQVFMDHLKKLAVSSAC

[8] = target: LIM domain kinase 2 (Homo sapiens) (UniProt P53671); also: assay method not described here
[9] = target: Non-POU domain-containing octamer-binding protein (Homo sapiens) (UniProt Q15233); also: assay method not described here
Chain of Non-POU domain-containing octamer-binding protein (Homo sapiens) (Q15233 whole entry, the tested form may be a part): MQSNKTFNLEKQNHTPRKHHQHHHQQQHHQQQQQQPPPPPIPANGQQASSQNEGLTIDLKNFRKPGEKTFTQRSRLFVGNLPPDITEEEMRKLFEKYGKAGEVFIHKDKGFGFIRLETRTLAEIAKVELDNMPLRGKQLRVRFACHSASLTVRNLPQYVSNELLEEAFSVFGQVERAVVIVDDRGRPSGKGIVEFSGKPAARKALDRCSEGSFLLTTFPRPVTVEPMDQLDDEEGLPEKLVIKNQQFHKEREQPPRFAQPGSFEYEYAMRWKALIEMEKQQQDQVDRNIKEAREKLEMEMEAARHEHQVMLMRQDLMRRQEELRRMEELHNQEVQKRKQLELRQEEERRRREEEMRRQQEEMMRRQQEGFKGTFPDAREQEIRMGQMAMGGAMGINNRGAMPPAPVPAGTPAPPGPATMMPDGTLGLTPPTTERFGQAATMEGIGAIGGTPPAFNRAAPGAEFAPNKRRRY

[10] = target: Eukaryotic translation elongation factor 1 epsilon-1 (Homo sapiens) (UniProt O43324); also: assay method not described here
[11] = target: Glyceraldehyde-3-phosphate dehydrogenase (Homo sapiens) (UniProt P04406); also: assay method not described here
[12] = target: TNF receptor-associated factor 2 (Homo sapiens) (UniProt Q12933); also: assay method not described here
Chain of TNF receptor-associated factor 2 (Homo sapiens) (Q12933 whole entry): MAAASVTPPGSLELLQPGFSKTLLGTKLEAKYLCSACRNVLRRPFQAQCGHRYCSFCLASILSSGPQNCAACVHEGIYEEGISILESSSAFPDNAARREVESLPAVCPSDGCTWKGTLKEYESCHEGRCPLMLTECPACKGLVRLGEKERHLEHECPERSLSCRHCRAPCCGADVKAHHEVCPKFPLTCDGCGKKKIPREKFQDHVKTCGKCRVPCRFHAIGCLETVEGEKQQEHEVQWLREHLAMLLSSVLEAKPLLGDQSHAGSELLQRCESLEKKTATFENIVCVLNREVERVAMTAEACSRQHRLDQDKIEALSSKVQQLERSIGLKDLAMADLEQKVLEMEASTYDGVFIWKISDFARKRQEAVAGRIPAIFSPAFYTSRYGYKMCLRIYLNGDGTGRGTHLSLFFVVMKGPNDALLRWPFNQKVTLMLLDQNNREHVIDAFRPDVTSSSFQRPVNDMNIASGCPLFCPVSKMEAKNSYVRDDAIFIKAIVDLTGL

[13] = target: Alpha-internexin (Homo sapiens) (UniProt Q16352); also: assay method not described here
Chain of Alpha-internexin (Homo sapiens) (Q16352 whole entry): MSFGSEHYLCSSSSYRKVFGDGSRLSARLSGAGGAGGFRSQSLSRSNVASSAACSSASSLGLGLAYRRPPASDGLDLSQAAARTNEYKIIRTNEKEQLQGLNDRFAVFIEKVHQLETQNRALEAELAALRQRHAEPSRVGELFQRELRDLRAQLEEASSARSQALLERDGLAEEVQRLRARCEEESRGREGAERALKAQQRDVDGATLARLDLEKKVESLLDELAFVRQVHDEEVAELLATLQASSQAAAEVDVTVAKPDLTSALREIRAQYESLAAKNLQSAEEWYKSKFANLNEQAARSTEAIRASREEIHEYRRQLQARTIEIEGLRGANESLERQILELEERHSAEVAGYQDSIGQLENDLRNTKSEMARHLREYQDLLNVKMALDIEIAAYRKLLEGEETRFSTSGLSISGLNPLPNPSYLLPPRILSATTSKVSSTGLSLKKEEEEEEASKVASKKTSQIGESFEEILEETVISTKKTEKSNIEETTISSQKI

[14] = target: Pre-mRNA-processing-splicing factor 8 (Homo sapiens) (UniProt Q6P2Q9); also: assay method not described here
[15] = target: Exportin-7 (Homo sapiens) (UniProt Q9UIA9); also: assay method not described here
[16] = target: Small ribosomal subunit protein uS9 (Homo sapiens) (UniProt P62249); also: assay method not described here
[17] = target: Eukaryotic translation initiation factor 4 gamma 1 (Homo sapiens) (UniProt Q04637); also: assay method not described here
[18] = target: Bone morphogenetic protein receptor type-1B (Homo sapiens) (UniProt O00238); also: assay method not described here
Chain of Bone morphogenetic protein receptor type-1B (Homo sapiens) (O00238 whole entry): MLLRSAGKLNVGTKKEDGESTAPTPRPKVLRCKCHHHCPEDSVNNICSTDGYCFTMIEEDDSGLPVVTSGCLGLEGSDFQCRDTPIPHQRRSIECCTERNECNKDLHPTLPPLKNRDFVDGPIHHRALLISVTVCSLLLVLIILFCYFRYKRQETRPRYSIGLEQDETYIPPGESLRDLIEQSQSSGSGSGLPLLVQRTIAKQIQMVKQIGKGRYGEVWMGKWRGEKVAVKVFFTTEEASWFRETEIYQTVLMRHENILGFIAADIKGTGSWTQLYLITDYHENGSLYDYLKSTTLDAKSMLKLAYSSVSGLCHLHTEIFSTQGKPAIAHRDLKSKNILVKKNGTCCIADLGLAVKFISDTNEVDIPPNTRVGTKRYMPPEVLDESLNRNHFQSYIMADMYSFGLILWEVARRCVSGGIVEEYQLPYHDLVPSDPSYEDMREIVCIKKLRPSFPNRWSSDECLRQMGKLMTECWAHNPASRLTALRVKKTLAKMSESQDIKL

[19] = target: Dolichyl-diphosphooligosaccharide--protein glycosyltransferase subunit DAD1 (Homo sapiens) (UniProt P61803); also: assay method not described here
Chain of Dolichyl-diphosphooligosaccharide--protein glycosyltransferase subunit DAD1 (Homo sapiens) (P61803 whole entry): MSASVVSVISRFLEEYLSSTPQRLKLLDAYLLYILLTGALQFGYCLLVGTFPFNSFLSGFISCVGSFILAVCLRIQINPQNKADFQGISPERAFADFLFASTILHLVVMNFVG

[20] = target: Glycogen phosphorylase, brain form (Homo sapiens) (UniProt P11216); also: assay method not described here
[21] = target: tRNA (guanosine(18)-2'-O)-methyltransferase TARBP1 (Homo sapiens) (UniProt Q13395)
Chain of tRNA (guanosine(18)-2'-O)-methyltransferase TARBP1 (Homo sapiens) (Q13395 whole entry): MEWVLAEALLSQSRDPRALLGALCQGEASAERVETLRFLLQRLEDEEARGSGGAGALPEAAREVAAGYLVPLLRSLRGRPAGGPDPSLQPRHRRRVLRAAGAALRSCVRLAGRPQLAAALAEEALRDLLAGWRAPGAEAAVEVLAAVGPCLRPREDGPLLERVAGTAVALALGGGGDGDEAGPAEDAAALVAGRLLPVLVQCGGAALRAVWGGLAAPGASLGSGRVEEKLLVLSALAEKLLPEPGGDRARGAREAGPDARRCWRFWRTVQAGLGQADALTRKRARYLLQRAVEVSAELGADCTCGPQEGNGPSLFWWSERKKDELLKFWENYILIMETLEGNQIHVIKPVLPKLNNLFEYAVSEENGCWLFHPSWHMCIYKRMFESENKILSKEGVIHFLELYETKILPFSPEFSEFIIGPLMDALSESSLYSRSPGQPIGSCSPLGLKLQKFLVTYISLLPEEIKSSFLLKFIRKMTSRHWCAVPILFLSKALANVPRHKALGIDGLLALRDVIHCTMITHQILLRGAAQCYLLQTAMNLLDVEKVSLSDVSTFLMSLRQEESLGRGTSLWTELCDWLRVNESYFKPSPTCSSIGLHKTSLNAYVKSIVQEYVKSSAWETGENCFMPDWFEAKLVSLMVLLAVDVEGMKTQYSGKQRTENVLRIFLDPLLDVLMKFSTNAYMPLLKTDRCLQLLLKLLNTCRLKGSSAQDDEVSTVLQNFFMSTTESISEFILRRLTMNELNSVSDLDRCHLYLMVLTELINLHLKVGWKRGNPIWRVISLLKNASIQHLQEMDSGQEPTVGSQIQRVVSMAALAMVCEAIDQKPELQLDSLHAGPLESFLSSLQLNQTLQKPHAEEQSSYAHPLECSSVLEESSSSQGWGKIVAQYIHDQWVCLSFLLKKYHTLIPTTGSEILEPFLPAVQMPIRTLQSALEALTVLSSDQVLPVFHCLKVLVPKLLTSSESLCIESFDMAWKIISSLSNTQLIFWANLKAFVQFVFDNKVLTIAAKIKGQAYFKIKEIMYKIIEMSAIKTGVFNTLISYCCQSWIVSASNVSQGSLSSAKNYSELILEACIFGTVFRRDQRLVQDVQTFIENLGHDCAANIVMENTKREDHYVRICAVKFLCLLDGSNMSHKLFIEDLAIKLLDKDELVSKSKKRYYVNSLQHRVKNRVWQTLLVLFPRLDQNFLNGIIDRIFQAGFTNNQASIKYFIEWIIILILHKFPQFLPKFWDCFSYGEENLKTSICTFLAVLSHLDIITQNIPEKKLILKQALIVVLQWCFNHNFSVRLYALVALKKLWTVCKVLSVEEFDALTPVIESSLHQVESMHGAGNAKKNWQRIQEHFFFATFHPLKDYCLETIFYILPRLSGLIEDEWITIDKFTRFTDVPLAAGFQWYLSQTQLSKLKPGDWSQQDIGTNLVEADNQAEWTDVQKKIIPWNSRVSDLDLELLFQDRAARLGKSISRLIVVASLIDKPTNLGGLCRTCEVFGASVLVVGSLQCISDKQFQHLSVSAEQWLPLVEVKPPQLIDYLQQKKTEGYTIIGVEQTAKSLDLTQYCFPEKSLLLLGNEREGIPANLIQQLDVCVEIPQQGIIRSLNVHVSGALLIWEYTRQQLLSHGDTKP

[22] = target: Fructosamine-3-kinase (Homo sapiens) (UniProt Q9H479); also: assay method not described here
[23] = target: Large ribosomal subunit protein uL2 (Homo sapiens) (UniProt P62917); also: assay method not described here
[24] = target: Protein FAM83E (Homo sapiens) (UniProt Q2M2I3); also: assay method not described here
[25] = target: Double-stranded RNA-binding protein Staufen homolog 1 (Homo sapiens) (UniProt O95793); also: assay method not described here
[26] = target: Ethanolaminephosphotransferase 1 (Homo sapiens) (UniProt Q9C0D9); also: assay method not described here
[27] = target: Serine/threonine-protein phosphatase 2A 55 kDa regulatory subunit B alpha isoform (Homo sapiens) (UniProt P63151); also: assay method not described here
[28] = target: Cerebellar degeneration-related protein 2 (Homo sapiens) (UniProt Q01850); also: assay method not described here
[29] = target: Ras-related protein Rab-14 (Homo sapiens) (UniProt P61106); also: assay method not described here
Chain of Ras-related protein Rab-14 (Homo sapiens) (P61106 2-215 limits assumed): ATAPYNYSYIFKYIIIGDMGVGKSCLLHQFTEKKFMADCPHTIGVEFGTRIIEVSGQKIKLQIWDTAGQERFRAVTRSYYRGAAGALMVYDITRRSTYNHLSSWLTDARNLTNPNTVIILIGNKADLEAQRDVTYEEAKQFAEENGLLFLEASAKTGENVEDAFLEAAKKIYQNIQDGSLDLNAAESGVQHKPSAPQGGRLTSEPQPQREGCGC

[30] = target: Glycogen synthase kinase-3 alpha (Homo sapiens) (UniProt P49840); also: assay method not described here
[31] = target: Nucleosome assembly protein 1-like 1 (Homo sapiens) (UniProt P55209); also: assay method not described here
[32] = target: Actin-like protein 6A (Homo sapiens) (UniProt O96019); also: assay method not described here
[33] = target: ATP-dependent RNA helicase DDX18 (Homo sapiens) (UniProt Q9NVP1); also: assay method not described here
[34] = target: Catechol O-methyltransferase (Homo sapiens) (UniProt P21964); also: assay method not described here
Chain of Catechol O-methyltransferase (Homo sapiens) (P21964 whole entry): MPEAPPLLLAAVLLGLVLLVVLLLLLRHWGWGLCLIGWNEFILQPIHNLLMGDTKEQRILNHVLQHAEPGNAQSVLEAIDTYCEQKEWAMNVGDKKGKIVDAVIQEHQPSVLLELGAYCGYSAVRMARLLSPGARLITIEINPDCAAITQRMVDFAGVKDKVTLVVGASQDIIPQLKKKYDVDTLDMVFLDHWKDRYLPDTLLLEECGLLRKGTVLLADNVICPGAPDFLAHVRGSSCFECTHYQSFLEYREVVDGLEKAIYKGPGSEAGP

[35] = target: Dynein light chain 2, cytoplasmic (Homo sapiens) (UniProt Q96FJ2); also: assay method not described here
[36] = target: Focal adhesion kinase 1 (Homo sapiens) (UniProt Q05397); also: assay method not described here
[37] = organism: Homo sapiens; also: assay method not described here
[38] = target: Small ribosomal subunit protein eS25 (Homo sapiens) (UniProt P62851); also: assay method not described here
[39] = target: Tyrosine-protein kinase SYK (Homo sapiens) (UniProt P43405); also: assay method not described here
[40] = target: Calnexin (Homo sapiens) (UniProt P27824); also: assay method not described here
[41] = target: Acidic leucine-rich nuclear phosphoprotein 32 family member A (Homo sapiens) (UniProt P39687); also: assay method not described here
[42] = target: Importin-8 (Homo sapiens) (UniProt O15397); also: assay method not described here
[43] = target: Bifunctional glutamate/proline--tRNA ligase (Homo sapiens) (UniProt P07814); also: assay method not described here
[44] = target: Neuroblast differentiation-associated protein AHNAK (Homo sapiens) (UniProt Q09666); also: assay method not described here
[45] = target: Ephrin type-A receptor 6 (Homo sapiens, UniProt Q9UF33); experiment: Inhibition of Nano Luc-fused full length C-terminal EPHA6 (unknown origin) expressed in HEK293T cells using NanoGlo as substrate incubated for 2 hrs in presence of tracer by NanoBRET assay; assay type: cell-based
For ED50 in this document: assay method not described here.

In the case of Cc1ccc(C(=O)Nc2cccc(C(F)(F)F)c2)cc1Nc1nc(-c2cccnc2)nc2c1cnn2C, the ED50 [1] is reported as 10.4 µM, the ED50 [2] is reported as 1.22 µM and the ED50 [3] is reported as 78.2 µM. For the same compound, the ED50 [4] was 0.000799 µM, the ED50 [5] was 93.1 µM and the IC50 [6] was 0.0028 µM. For the same compound, the ED50 [7] was 9.39 µM, the ED50 [8] was 2.57 µM and the ED50 [9] was 3.17 µM. It also gave an ED50 [10] of 0.168 µM, an ED50 [11] of 8.39 µM and an ED50 [12] of 3.11 µM. It also gave an ED50 [13] of 0.306 µM, an ED50 [14] of 93.7 µM and an ED50 [15] of 0.0517 µM. The ED50 [16] was 0.0497 µM, the ED50 [17] was 0.0238 µM and the ED50 [18] was 6290 µM. It also gave an ED50 [19] of 14 µM, an ED50 [20] of 0.0395 µM and an ED50 [21] of 18.4 µM. The ED50 [22] was 7.31 µM, the ED50 [23] was 0.0503 µM and the ED50 [24] was 0.141 µM. It also gave an ED50 [25] of 2.27 µM, an ED50 [26] of 1.54 µM and an ED50 [27] of 3.68 µM. It also gave an ED50 [28] of 26.2 µM, an ED50 [29] of 2.88 µM and an ED50 [30] of 0.00363 µM. The ED50 [31] was 3.1 µM, the ED50 [32] was 3.26 µM and the ED50 [33] was 0.0244 µM. It also gave an ED50 [34] of 21.6 µM, an ED50 [35] of 0.148 µM and an ED50 [36] of 10.4 µM. For the same compound, the ED50 [37] was 1.29 µM, the ED50 [38] was 2.64 µM and the ED50 [39] was 3.85 µM. It also gave an ED50 [40] of 5.64 µM, an ED50 [41] of 2.29 µM and an ED50 [42] of 49.5 µM. It also gave an ED50 [43] of 0.0324 µM, an ED50 [44] of 4.79 µM and an IC50 [45] of 0.263 µM.
Cc1ccc(C(=O)Nc2cccc(C(F)(F)F)c2)cc1Nc1nc(-c2cccnc2)nc2nn(C)cc12 gave an ED50 [1] of 9.78 µM, an ED50 [2] of 0.0299 µM and an ED50 [3] of 3.97 µM. It also gave an ED50 [4] of 1.78 µM, an ED50 [5] of 191 µM and an IC50 [6] of 0.208 µM. It also gave an ED50 [7] of 0.0397 µM, an ED50 [8] of 1.38 µM and an ED50 [9] of 0.0517 µM. For the same compound, the ED50 [10] was 0.502 µM, the ED50 [11] was 0.0602 µM and the ED50 [12] was 0.68 µM. The ED50 [13] was 1.7 µM, the ED50 [14] was 0.553 µM and the ED50 [15] was 0.0173 µM. The ED50 [16] was 0.345 µM, the ED50 [17] was 0.0778 µM and the ED50 [18] was 60.4 µM. It also gave an ED50 [19] of 32.9 µM, an ED50 [20] of 7 µM and an ED50 [21] of 63.1 µM. It also gave an ED50 [22] of 0.291 µM, an ED50 [23] of 0.121 µM and an ED50 [24] of 155 µM. The ED50 [25] was 0.0134 µM, the ED50 [26] was 0.809 µM and the ED50 [27] was 0.377 µM. The ED50 [28] was 0.303 µM, the ED50 [29] was 4.44 µM and the ED50 [30] was 0.0885 µM. The ED50 [31] was 147 µM, the ED50 [32] was 12.6 µM and the ED50 [33] was 0.0164 µM. For the same compound, the ED50 [34] was 0.169 µM, the ED50 [35] was 0.459 µM and the ED50 [36] was 0.0476 µM. The ED50 [37] was 0.0274 µM, the ED50 [38] was 0.2 µM and the ED50 [39] was 0.216 µM. For the same compound, the ED50 [40] was 9.63 µM, the ED50 [41] was 12.4 µM and the ED50 [42] was 25.8 µM. It also gave an ED50 [43] of 1.21 µM, an ED50 [44] of 0.11 µM and an IC50 [45] greater than 50 µM.
